Each structure is given as a SMILES string.

Test [1] has as its target Calcium/calmodulin-dependent protein kinase type II subunit beta (Homo sapiens) (UniProt Q13554). Briefly: Inhibition of CAMK2 (unknown origin) at 0.49 uM relative to control.
The target in test [2] is MAP kinase-interacting serine/threonine-protein kinase 1 (Homo sapiens) (UniProt Q9BUB5). Briefly: Inhibition of MNK1 (unknown origin) at 0.49 uM relative to control.
The target in test [3] is Insulin-like growth factor 1 receptor (Homo sapiens) (UniProt P08069). Briefly: Inhibition of IGF1R (unknown origin) at 0.49 uM relative to control.
Test [4] has as its target Serine/threonine-protein kinase PAK 3 (Homo sapiens) (UniProt O75914). Briefly: Inhibition of PAK3 (unknown origin) at 0.49 uM relative to control.
For test [5], the target named is Ephrin type-B receptor 3 (Homo sapiens) (UniProt P54753). Briefly: Inhibition of EPHB3 (unknown origin) at 0.49 uM relative to control.
The test system of test [6] is Fibroblast growth factor receptor 2 (Homo sapiens), P21802 [N549H]. Briefly: Inhibition of FGFR2 N549H mutant (unknown origin) at 0.49 uM.
The target of test [7] is Tyrosine-protein kinase SYK (Homo sapiens) (UniProt P43405). Description: Inhibition of SYK (unknown origin) at 0.49 uM relative to control.
Test [8] deals with Tyrosine-protein kinase Srms (Homo sapiens) (UniProt Q9H3Y6). Briefly: Inhibition of SRM (SRMS) (unknown origin) at 0.49 uM relative to control.
The target in test [9] is Receptor-type tyrosine-protein kinase FLT3 (Homo sapiens) (UniProt P36888). Description: Inhibition of FLT3 (unknown origin) at 0.078 uM relative to control.
Test [10] has as its target T1, AMP-activated protein kinase, AMPK (Homo sapiens) (UniProt P54646+O43741+P54619+Q9UGJ0+Q9Y478+Q13131+Q9UGI9). Briefly: Inhibition of AMPK (unknown origin) at 0.078 uM relative to control.
Test [11] has as its target T2, cGMP-dependent protein kinase 1 (Homo sapiens) (UniProt Q13976).
T2 sequence (whole entry): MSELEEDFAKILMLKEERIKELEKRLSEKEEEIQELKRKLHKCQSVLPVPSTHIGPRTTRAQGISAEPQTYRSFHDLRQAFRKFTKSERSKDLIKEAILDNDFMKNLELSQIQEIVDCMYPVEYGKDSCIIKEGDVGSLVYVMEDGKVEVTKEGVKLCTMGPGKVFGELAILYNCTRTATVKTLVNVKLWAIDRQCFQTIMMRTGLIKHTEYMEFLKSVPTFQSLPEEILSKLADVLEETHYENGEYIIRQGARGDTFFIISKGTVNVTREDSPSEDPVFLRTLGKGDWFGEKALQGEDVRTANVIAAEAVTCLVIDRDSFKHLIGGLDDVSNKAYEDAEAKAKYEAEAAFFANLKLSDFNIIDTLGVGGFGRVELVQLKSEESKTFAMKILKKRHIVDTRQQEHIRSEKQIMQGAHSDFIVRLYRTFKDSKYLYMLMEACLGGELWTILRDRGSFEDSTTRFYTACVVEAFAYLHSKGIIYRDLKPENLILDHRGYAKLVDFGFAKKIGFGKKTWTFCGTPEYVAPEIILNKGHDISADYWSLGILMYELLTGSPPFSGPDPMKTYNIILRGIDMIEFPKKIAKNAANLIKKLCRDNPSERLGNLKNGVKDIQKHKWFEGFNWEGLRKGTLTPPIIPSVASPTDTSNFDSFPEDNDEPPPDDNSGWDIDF
Description: Inhibition of PKG-alpha (unknown origin) at 0.078 uM relative to control.

Test [12] addresses Tyrosine-protein kinase SYK (Homo sapiens) (UniProt P43405). Briefly: Inhibition of SYK (unknown origin) at 0.078 uM relative to control.
Test [13] concerns the target Insulin-like growth factor 1 receptor (Homo sapiens) (UniProt P08069). Briefly: Inhibition of IGF1R (unknown origin) at 0.078 uM relative to control.
The target of test [14] is Glycogen synthase kinase-3 beta (Homo sapiens) (UniProt P49841). Briefly: Inhibition of GSK3b (unknown origin) at 0.078 uM relative to control.
Test [15] concerns Fibroblast growth factor receptor 1 (Homo sapiens), P11362 [V561M]. Briefly: Inhibition of FGFR1 V561M mutant (unknown origin) at 0.45 uM relative to control.
Test [16] addresses Ephrin type-B receptor 2 (Homo sapiens) (UniProt P29323). Briefly: Inhibition of EPHB2 (unknown origin) at 0.45 uM relative to control.
The target in test [17] is Calcium/calmodulin-dependent protein kinase type II subunit gamma (Homo sapiens) (UniProt Q13555). Description: Inhibition of CaMK2-gamma (unknown origin) at 0.45 uM relative to control.
Test [18] deals with Mitogen-activated protein kinase 3 (Homo sapiens) (UniProt P27361). Briefly: Inhibition of Erk1 (unknown origin) at 0.45 uM relative to control.
Test [19] deals with Mitogen-activated protein kinase 13 (Homo sapiens) (UniProt O15264). Description: Inhibition of p38-delta (unknown origin) at 0.45 uM relative to control.
For test [20], the target named is Tyrosine-protein kinase ITK/TSK (Homo sapiens) (UniProt Q08881). Briefly: Inhibition of ITK (unknown origin) at 0.45 uM relative to control.
In test [21] the target is Dual specificity tyrosine-phosphorylation-regulated kinase 1A (Homo sapiens) (UniProt Q13627). Description: Inhibition of DYRK1a (unknown origin) at 0.45 uM relative to control.
Test [22] has as its system Epidermal growth factor receptor (Homo sapiens), P00533 [T790M]. Briefly: Inhibition of EGFR T790M mutant (unknown origin) at 0.45 uM relative to control.
For test [23], the target named is Serine/threonine-protein kinase PAK 3 (Homo sapiens) (UniProt O75914). Briefly: Inhibition of PAK3 (unknown origin) at 0.45 uM relative to control.
The target of test [24] is T1, AMP-activated protein kinase, AMPK (Homo sapiens). Description: Inhibition of AMPK (unknown origin) at 0.45 uM relative to control.
Test [25] concerns the target T3, Serine/threonine-protein kinase Sgk1 (Homo sapiens) (UniProt O00141).
T3 sequence (whole entry): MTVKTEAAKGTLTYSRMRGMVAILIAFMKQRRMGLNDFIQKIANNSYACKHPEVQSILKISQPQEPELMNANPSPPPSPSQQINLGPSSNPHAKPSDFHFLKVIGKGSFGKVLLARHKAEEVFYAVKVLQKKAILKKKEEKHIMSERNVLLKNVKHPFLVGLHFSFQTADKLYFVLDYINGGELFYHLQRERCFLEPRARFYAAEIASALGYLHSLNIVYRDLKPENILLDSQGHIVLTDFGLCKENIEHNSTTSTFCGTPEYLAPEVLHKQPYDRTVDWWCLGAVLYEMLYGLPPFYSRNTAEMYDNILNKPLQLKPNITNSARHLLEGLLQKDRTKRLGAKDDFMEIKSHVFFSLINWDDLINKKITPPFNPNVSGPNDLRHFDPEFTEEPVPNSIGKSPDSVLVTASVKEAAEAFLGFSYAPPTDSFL
Briefly: Inhibition of SGK1 (unknown origin) at 0.45 uM relative to control.

The target of test [26] is Dual specificity protein kinase CLK2 (Homo sapiens) (UniProt P49760). Briefly: Inhibition of CLK2 (unknown origin) at 0.45 uM relative to control.

Serine/threonine-protein kinase PAK 3 (Homo sapiens), sequence (O75914 whole entry, looked up): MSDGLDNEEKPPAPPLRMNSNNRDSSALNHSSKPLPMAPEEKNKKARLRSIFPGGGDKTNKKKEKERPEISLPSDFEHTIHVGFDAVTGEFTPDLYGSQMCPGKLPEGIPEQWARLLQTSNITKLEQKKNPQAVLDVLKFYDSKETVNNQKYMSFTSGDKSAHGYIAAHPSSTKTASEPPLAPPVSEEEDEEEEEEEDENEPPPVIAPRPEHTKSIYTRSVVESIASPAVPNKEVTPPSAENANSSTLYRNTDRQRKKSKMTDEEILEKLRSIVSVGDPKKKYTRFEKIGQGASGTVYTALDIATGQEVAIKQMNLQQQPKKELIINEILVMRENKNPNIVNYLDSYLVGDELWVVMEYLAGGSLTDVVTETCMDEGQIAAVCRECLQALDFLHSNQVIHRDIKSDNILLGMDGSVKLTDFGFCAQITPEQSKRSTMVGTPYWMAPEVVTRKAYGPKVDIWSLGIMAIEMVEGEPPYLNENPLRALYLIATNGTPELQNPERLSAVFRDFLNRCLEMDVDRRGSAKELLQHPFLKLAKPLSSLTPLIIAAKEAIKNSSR
Insulin-like growth factor 1 receptor (Homo sapiens), sequence (P08069 31-736 limits assumed): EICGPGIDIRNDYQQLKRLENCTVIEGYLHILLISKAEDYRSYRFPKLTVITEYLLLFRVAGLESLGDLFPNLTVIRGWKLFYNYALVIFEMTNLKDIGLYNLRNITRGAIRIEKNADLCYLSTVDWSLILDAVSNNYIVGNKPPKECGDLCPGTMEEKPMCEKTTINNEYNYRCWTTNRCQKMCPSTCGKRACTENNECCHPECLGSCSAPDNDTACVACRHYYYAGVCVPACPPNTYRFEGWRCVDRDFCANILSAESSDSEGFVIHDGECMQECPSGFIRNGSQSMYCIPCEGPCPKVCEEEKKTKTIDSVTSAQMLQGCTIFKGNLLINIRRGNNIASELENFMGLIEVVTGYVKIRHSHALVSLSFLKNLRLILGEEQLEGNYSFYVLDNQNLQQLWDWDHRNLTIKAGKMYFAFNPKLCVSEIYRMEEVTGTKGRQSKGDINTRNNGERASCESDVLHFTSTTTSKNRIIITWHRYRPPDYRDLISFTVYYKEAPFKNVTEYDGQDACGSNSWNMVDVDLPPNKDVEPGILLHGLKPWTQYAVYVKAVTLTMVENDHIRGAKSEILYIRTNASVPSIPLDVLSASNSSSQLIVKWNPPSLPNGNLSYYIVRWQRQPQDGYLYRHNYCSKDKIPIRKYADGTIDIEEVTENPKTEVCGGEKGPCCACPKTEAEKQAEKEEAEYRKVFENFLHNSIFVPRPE
Insulin-like growth factor 1 receptor (Homo sapiens), sequence (P08069 741-1367 limits assumed): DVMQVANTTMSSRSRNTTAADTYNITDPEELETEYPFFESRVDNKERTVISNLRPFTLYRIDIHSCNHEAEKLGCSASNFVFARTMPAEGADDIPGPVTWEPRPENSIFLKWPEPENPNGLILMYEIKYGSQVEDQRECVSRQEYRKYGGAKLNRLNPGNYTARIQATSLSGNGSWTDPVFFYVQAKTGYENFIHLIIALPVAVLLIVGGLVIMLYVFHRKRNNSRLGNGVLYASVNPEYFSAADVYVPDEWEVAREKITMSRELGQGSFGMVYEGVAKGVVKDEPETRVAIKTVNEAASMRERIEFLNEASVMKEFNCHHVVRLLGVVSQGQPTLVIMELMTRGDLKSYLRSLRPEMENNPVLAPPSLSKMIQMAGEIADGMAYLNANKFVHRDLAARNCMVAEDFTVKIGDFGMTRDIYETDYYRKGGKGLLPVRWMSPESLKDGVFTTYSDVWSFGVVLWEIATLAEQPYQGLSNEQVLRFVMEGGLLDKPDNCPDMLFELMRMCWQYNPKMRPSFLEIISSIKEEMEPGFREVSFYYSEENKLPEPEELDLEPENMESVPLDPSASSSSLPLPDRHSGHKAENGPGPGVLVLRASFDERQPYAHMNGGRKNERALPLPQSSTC
Tyrosine-protein kinase ITK/TSK (Homo sapiens), sequence (Q08881 whole entry): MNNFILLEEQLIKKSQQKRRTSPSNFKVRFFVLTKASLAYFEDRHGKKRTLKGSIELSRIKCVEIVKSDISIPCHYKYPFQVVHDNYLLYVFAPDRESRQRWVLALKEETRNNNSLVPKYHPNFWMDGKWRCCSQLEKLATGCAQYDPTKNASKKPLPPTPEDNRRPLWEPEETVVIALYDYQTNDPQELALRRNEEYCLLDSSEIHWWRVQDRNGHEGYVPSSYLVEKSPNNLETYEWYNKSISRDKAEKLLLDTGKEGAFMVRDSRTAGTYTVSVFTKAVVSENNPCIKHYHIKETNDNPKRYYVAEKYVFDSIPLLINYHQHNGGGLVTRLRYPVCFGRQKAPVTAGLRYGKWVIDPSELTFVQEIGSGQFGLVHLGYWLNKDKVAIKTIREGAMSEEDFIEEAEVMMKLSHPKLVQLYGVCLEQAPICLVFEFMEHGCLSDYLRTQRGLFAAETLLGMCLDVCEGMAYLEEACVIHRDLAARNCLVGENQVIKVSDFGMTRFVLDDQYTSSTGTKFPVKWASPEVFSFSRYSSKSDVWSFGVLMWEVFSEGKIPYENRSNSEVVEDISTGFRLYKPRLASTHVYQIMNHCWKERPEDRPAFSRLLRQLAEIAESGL
Mitogen-activated protein kinase 13 (Homo sapiens), sequence (O15264 whole entry): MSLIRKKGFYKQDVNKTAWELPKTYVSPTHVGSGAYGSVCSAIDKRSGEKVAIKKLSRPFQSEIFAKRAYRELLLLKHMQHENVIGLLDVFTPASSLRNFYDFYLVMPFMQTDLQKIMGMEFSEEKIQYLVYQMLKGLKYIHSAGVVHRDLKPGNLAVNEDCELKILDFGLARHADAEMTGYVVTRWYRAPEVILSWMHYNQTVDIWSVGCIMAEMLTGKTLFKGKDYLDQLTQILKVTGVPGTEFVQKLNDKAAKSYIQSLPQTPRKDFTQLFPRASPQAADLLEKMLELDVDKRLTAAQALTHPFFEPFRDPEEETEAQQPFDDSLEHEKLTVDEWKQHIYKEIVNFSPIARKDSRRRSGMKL
Calcium/calmodulin-dependent protein kinase type II subunit gamma (Homo sapiens), sequence (Q13555 whole entry): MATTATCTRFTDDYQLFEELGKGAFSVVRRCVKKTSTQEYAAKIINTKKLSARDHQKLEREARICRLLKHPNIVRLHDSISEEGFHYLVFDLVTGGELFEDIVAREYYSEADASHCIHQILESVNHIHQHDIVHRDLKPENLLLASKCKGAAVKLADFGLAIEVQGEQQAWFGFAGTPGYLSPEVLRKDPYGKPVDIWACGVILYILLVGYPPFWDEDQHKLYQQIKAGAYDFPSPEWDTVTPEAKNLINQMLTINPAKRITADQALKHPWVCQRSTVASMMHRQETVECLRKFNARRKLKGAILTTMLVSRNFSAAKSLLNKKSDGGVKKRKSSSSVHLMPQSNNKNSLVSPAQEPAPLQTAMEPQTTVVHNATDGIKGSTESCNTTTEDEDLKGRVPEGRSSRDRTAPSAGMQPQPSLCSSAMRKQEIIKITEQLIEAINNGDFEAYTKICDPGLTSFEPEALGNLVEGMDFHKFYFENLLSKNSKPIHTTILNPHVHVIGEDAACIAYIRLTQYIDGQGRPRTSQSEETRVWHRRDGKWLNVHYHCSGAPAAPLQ
Ephrin type-B receptor 3 (Homo sapiens), sequence (P54753 whole entry): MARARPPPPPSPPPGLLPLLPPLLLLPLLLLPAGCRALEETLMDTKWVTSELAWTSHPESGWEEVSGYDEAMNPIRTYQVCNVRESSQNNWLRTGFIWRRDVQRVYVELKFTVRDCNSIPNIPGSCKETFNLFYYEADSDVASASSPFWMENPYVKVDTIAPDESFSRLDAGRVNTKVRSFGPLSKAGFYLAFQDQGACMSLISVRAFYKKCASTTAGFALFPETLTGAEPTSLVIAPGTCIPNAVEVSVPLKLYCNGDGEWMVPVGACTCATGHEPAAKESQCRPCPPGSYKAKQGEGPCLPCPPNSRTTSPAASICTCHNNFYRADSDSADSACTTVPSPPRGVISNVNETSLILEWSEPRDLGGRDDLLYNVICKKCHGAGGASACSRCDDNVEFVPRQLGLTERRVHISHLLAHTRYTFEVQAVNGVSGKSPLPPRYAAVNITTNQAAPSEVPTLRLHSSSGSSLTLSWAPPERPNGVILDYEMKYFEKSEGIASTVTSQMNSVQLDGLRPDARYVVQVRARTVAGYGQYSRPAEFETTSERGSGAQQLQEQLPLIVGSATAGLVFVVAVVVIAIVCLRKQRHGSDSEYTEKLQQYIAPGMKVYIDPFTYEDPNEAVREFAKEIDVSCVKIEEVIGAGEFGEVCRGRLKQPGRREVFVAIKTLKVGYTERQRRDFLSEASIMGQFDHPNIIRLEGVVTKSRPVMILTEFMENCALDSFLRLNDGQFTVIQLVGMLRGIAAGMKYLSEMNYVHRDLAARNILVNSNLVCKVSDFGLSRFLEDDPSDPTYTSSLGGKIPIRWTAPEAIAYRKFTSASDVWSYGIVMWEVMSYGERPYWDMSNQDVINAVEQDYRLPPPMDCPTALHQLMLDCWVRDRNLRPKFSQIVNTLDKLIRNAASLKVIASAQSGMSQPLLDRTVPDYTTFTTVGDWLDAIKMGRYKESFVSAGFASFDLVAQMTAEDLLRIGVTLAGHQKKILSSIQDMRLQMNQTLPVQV
Tyrosine-protein kinase Srms (Homo sapiens), sequence (Q9H3Y6 whole entry): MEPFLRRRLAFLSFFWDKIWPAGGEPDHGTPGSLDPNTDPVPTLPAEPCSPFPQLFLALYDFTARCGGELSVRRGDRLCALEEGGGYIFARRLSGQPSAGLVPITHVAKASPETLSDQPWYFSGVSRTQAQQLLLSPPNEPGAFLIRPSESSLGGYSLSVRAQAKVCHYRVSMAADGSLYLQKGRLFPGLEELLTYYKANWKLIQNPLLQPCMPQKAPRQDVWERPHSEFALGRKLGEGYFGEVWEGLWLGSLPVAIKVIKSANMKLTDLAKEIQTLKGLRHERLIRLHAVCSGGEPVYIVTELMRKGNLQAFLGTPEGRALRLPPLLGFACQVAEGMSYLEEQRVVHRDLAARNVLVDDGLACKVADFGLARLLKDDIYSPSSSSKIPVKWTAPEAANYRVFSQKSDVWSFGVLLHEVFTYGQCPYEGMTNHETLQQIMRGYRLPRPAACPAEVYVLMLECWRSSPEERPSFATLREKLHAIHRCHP

In general, inhibition refers to the change of the read-out against control, counted positive when it falls. In the case of `Cc1[nH]nc(C2CC2)c1-c1ccc2c(NC(=O)C3CC3)noc2c1`, the inhibition in test [1] was -7%; in [2], 3%; in [3], 1.3%; in test [4] it was -4.3%; in [5], 0.7%; in test [6], 0%. Also, the figures for the inhibition in test [7] and in [8] were 0.7% and 2.3%, respectively.

`COC(=O)Nc1noc2cc(-c3c(-c4ccccn4)n[nH]c3C)ccc12`: the inhibition in test [9] is -0.3%; in [10] it was 2.7%; in test [11] it was -3.3%; in test [12], 0%; in test [13], 2.3%; in [14], 10%.

As for `Cc1n[nH]c(C)c1-c1ccc2c(NC(=O)c3ccc(N4CCN(C)CC4)cc3)n[nH]c2c1`, the inhibition worked out at 23.7% in [15]; 6.7% in test [16]; 3% in test [17]; 1.3% in [18]; 4.3% in test [19]; 89% in [20]. For the same molecule, the inhibition in [21] was found to be 6.3%; in [22] it was 0.7%; in test [23], 3.7%; in [24] it was 26%; in test [25], 2.3%; in test [26], 9%.

The record behind these values is ChEMBL document CHEMBL4052759, “Discovery of DS79182026: A potent orally active hepcidin production inhibitor” (Bioorg Med Chem Lett, 2017).
